Source: PMC7029851, “Antibacterial activity of novel dual bacterial DNA type II topoisomerase inhibitors” (PLoS ONE, 2020)
Read-outs that look alike come from different tables or passages of the source.

Legend:
[1] = test system: E. faecalis clinical isolates (n = 12) vanA (6)/vanB (6); assay: MIC, multidrug-resistant clinical isolates; type: cell-based; conditions: Enterococcus faecalis; for MIC: read-out: MIC range
Protocol: (§1) The bacterial reference strains used in this study were purchased from ATCC (American Type Culture Collection) via LGC Standards (Middlesex, UK). […] Clinical MDR isolates were provided by Aptuit, the IHMA Europa Sàrl repository (Epalinges, Switzerland) and the Statens Serum Institute (Copenhagen, Denmark).
(§2) MICs were determined by the broth microdilution method (the agar dilution method was used only for N. gonorrhoeae) according to CLSI guidelines.
(§3) The results obtained using clinical isolates are reported as MIC50 and MIC90 values.

[2] = test system: E. faecium clinical isolates (n = 12) vanA (6)/vanB (6); assay: MIC, multidrug-resistant clinical isolates; type: cell-based; conditions: Enterococcus faecium; for MIC: read-out: MIC range
Protocol: as §1, §2, §3

S. aureus DNA gyrase = target: T1, S. aureus DNA gyrase (Staphylococcus aureus, UniProt P20831); assay: S. aureus DNA gyrase supercoiling gel assay; type: biochemical
T1 construct: purchased Inspiralis (Norwich, UK)
T1 sequence (P20831 whole entry): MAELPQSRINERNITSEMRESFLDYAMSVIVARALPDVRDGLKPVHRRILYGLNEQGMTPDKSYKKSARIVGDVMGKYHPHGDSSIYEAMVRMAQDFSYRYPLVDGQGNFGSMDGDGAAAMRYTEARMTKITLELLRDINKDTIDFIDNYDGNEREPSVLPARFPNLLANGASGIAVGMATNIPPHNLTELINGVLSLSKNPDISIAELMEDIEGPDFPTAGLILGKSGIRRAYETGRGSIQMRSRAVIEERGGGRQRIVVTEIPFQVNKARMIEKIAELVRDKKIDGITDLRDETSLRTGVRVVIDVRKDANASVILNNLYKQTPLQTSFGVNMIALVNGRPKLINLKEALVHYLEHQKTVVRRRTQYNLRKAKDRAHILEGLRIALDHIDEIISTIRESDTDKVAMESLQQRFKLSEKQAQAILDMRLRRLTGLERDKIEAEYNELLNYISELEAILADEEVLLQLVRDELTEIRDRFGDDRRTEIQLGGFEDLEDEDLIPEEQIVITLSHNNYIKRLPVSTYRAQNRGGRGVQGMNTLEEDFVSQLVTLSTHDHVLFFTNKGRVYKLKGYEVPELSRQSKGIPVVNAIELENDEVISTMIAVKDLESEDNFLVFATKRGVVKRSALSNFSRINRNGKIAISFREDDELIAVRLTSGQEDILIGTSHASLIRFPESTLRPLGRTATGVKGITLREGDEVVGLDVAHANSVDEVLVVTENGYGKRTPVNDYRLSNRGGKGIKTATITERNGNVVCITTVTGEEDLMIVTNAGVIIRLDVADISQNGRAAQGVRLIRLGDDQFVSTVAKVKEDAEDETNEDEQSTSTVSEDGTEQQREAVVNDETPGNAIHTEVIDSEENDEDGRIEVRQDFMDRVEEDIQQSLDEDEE
T1 sequence (P0A0K8 whole entry partner): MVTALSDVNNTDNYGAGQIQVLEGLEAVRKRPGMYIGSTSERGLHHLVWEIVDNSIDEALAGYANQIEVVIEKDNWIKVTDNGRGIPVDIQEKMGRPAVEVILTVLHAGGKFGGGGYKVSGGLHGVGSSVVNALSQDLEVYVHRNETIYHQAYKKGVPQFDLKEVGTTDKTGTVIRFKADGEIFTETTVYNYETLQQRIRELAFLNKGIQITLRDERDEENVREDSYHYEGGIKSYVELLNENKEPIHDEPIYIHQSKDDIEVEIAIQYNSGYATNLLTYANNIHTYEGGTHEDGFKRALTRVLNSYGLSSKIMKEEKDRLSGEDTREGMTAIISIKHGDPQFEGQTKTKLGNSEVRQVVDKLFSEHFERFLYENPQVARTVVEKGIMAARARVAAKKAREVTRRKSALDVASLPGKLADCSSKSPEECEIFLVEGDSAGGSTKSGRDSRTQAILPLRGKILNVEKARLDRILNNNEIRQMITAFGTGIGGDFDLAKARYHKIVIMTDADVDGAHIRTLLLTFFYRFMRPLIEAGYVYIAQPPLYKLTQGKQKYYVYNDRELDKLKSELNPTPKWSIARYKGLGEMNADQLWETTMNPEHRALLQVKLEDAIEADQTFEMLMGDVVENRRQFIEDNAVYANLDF
Protocol: (§4) S. aureus and E. coli DNA gyrase supercoiling and topo IV decatenation assay kits, as well as human topoisomerase II decatenation assay kits, were provided by Inspiralis (Norwich, UK). Assays were performed according to the manufacturer’s instructions. The compounds were serially diluted (1:3 dilutions starting from a 300 μM final concentration) and assayed in a reaction mixture to obtain concentration-response curves in two different replicate experiments. The final concentration of DMSO in the assays was 1% (v/v). The reactions were terminated by the addition of 30 μl chloroform/isoamyl alcohol (26:1) and 30 μl Stop Dye (40% sucrose, 100 mM Tris HCl pH 7.5, 1 mM EDTA, 0.5 μg/ml bromophenol blue), after which the samples were loaded onto a 1.0% TAE ([…]) gel that was then run at 80 V for 2 hours. DNA bands were visualized by ethidium bromide staining the gel for 10 minutes, which was then destained for 10 minutes in water and analysed using gel documentation equipment (Syngene, Cambridge, UK). The DNA in each band was quantitated using Syngene Gene Tools software. Raw gel data (fluorescent band volumes) were converted by the software to percentages of the control (the fully supercoiled or decatenated DNA band). […] The global curve fit non-linear regression tool was used to calculate the IC50 values. The results are expressed as the average values obtained after calculating the IC50 from each replicate run.

[3] = test system: N. gonorrhoeae clinical isolates (n = 38); assay: microbe, parasite or virus in culture; type: cell-based, Neisseria gonorrhoeae; conditions: for MIC50 / MIC90: Neisseria gonorrhoeae
Protocol: as §1, §2, §3

S. aureus ATCC 29213 = assay: MIC, broth microdilution; type: cell-based, Staphylococcus aureus; conditions: for MIC: Staphylococcus aureus
Protocol: as §2

Human Topoisomerase II = target: T2, Human Topoisomerase II (Homo sapiens, UniProt P11388); assay: Human topoisomerase II decatenation gel assay; type: biochemical
T2 construct: purchased Inspiralis (Norwich, UK)
Protocol: as §4

[4] = test system: N. gonorrhoeae ATCC 49226; assay: MIC, agar dilution; type: cell-based; conditions: Neisseria gonorrhoeae, ATCC49226; N. gonorrhoeae ATCC 49226, ciprofloxacin-susceptible
Protocol: as §2

[5] = test system: N. gonorrhoeae ATCC 19424; assay: MIC, agar dilution; type: cell-based; conditions: Neisseria gonorrhoeae, ATCC19424; N. gonorrhoeae ATCC 19424, ciprofloxacin-susceptible
Protocol: as §2

N. gonorrhoeae WHO K = assay: MIC, agar dilution; type: cell-based; conditions: Neisseria gonorrhoeae, ciprofloxacin-resistant
Protocol: as §2

N. gonorrhoeae WHO N = assay: MIC, agar dilution; type: cell-based; conditions: Neisseria gonorrhoeae, ciprofloxacin-resistant
Protocol: as §2

N. gonorrhoeae WHO L = assay: MIC, agar dilution; type: cell-based; conditions: Neisseria gonorrhoeae, ciprofloxacin-resistant
Protocol: as §2

E. coli TolC- mutant = assay: microbe, parasite or virus in culture; type: cell-based; conditions: Escherichia coli
Protocol: as §1, §2

E. coli Topoisomerase IV = target: T3, E. coli Topoisomerase IV (Escherichia coli, UniProt P0AFI2); assay: E. coli topoisomerase IV decatenation gel assay; type: biochemical
T3 construct: purchased Inspiralis (Norwich, UK)
T3 sequence (P20083 whole entry): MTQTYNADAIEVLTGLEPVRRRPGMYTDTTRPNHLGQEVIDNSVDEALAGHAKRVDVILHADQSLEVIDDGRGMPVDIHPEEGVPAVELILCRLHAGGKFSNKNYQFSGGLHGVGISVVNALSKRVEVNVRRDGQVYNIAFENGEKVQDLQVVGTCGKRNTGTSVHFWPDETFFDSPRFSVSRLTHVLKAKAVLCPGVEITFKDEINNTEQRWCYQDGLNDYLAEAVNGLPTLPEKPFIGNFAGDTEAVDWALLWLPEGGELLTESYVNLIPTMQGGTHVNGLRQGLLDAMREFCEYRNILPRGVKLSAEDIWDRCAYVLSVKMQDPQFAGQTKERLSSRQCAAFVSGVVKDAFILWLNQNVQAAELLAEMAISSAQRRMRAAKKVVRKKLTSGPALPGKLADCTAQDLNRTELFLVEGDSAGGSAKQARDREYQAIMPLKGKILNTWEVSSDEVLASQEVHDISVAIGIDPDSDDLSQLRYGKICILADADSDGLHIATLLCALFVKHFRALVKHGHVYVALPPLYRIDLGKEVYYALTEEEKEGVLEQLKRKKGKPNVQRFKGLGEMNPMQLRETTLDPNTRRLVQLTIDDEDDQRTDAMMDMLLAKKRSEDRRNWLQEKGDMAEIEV
T3 sequence (P0AFI2 whole entry): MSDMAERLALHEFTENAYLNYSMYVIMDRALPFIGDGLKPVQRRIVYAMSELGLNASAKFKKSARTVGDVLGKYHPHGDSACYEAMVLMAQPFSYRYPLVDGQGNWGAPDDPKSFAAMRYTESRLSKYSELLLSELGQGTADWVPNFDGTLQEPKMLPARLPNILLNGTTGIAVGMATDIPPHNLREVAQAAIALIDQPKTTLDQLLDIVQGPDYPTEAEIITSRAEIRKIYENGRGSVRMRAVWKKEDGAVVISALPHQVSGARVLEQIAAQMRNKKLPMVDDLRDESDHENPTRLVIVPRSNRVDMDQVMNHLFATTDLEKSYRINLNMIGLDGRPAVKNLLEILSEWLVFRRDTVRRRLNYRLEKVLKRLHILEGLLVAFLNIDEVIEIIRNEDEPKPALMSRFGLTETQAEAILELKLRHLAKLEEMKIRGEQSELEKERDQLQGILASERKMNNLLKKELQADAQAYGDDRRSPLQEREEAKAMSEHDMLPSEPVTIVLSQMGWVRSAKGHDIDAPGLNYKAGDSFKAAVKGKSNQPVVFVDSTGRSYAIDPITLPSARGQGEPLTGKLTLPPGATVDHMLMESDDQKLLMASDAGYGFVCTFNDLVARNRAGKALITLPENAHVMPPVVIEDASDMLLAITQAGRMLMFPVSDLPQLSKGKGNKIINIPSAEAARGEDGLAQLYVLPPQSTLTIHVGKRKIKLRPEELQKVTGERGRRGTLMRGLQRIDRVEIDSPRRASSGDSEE
Protocol: as §4

[6] = target: T4, S. aureus Topoisomerase IV (Staphylococcus aureus, UniProt P0C1U9); assay: S. aureus topoisomerase IV decatenation gel assay; type: biochemical
T4 construct: purchased Inspiralis (Norwich, UK)
Protocol: as §4

E. coli ATCC 25922 = assay: MIC, broth microdilution; type: cell-based; conditions: Escherichia coli, ATCC25922; E. coli ATCC 25922, ciprofloxacin-susceptible
Protocol: as §2

S. pneumoniae ATCC 49619 = assay: MIC, broth microdilution; type: cell-based; conditions: Streptococcus pneumoniae, ATCC49619; S. pneumoniae ATCC 49619, ciprofloxacin-susceptible
Protocol: as §2

E. coli 4SI = assay: MIC, broth microdilution; type: cell-based; conditions: Escherichia coli, ciprofloxacin-resistant
Protocol: as §2

H. influenzae ATCC 49766 = assay: MIC, broth microdilution; type: cell-based; conditions: Haemophilus influenzae, ATCC49766; H. influenzae ATCC 49766, ciprofloxacin-susceptible
Protocol: as §2

E. faecalis ATCC 29212 = assay: MIC, broth microdilution; type: cell-based; conditions: Enterococcus faecalis, ATCC29212; E. faecalis ATCC 29212, ciprofloxacin-susceptible
Protocol: as §2

[7] = test system: K. pneumoniae ATCC 700603; assay: MIC, broth microdilution; type: cell-based; conditions: Klebsiella pneumoniae, ATCC700603; K. pneumoniae ATCC 700603, ciprofloxacin-susceptible
Protocol: as §2

P. aeruginosa ATCC 27853 = assay: MIC, broth microdilution; type: cell-based; conditions: Pseudomonas aeruginosa, ATCC27853; P. aeruginosa ATCC 27853, ciprofloxacin-susceptible
Protocol: as §2

S. aureus BAA-1720 = assay: MIC, broth microdilution; type: cell-based; conditions: Staphylococcus aureus, BAA1720; S. aureus BAA-1720, ciprofloxacin-resistant
Protocol: as §2

E. coli DNA gyrase = target: T5, E. coli DNA gyrase (Escherichia coli, UniProt P0AES4); assay: E. coli DNA gyrase supercoiling gel assay; type: biochemical
T5 construct: purchased Inspiralis (Norwich, UK)
T5 sequence (P0AES4 whole entry): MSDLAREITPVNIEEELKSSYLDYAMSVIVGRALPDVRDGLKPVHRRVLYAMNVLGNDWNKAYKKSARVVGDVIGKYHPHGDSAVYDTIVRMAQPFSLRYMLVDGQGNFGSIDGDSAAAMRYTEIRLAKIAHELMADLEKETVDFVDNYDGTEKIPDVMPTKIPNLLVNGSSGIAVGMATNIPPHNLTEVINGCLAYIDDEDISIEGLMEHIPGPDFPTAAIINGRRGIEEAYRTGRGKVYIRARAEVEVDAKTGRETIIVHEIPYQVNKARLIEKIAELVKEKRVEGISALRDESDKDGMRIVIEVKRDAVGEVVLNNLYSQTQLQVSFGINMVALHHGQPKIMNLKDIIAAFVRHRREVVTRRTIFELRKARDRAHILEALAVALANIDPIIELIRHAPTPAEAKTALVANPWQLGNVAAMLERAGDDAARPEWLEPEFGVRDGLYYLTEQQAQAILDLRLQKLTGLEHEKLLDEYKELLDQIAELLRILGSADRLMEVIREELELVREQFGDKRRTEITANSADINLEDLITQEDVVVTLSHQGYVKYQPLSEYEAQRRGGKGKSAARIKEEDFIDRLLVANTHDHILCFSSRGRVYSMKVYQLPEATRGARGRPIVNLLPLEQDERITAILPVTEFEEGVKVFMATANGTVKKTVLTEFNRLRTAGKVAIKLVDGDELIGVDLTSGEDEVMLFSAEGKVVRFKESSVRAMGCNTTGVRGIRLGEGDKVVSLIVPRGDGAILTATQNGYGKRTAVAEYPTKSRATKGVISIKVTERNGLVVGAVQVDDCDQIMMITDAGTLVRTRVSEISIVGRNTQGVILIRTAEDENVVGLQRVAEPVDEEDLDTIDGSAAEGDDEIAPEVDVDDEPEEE
Protocol: as §4

[8] = average of two replicate experiments, read-out: IC50 S. aureus Gyrase Supercoiling (average)
[9] = replicate Assay 1, read-out: IC50 S.aureus gyrase Supercoiling, Assay 1
[10] = replicate Assay 2, read-out: IC50 S.aureus gyrase Supercoiling, Assay 2
[11] = ATCC29213, S. aureus ATCC 29213, ciprofloxacin-susceptible
[12] = average of two replicate experiments, read-out: IC50 Human Topoisomerase II decatenation (average)
[13] = replicate Assay 1, read-out: IC50 Human Topoisomerase II (TopoII) decatenation, Assay 1
[14] = replicate Assay 2, read-out: IC50 Human Topoisomerase II (TopoII) decatenation, Assay 2
[15] = IC50 E. coli Topoisomerase IV decatenation (average), average of two replicate experiments
[16] = IC50 E. coli Topoisomerase IV decatenation, Assay 1, replicate Assay 1
[17] = IC50 E. coli Topoisomerase IV decatenation, Assay 2, replicate Assay 2
[18] = average of two replicate experiments, read-out: IC50 S. aureus Topoisomerase IV decatenation (average)
[19] = replicate Assay 1, read-out: IC50 S. aureus Topoisomerase IV decatenation, Assay 1
[20] = replicate Assay 2, read-out: IC50 S. aureus Topoisomerase IV decatenation, Assay 2
[21] = IC50 E. coli Gyrase Supercoiling (average), average of two replicate experiments
[22] = IC50 E. coli gyrase Supercoiling, Assay 1, replicate Assay 1
[23] = IC50 E. coli gyrase Supercoiling, Assay 2, replicate Assay 2

SMILES: Cl.N#Cc1ccc2ccc(=O)n([C@H]3CC[C@H](NCc4cc5c(=O)oc6ccc(F)cc6c5[nH]4)CC3)c2c1 [Compound 2, 1-(trans-4-{[(8-fluoro-4-oxo-1,4-dihydro[1]benzopyrano[4,3-b]pyrrol-2-yl)methyl]amino}cyclohexyl)-2-oxo-1,2-dihydroquinoline-7-carbonitrile hydrochloride]
- MIC50 [1]: 0.12 µg/mL
- MIC90 [1]: 0.12 µg/mL
- MIC [1]: 0.06 to 0.12 µg/mL
- MIC50 [2]: 0.12 µg/mL
- MIC90 [2]: 0.25 µg/mL
- MIC [2]: 0.06 to 1 µg/mL
- IC50 (S. aureus DNA gyrase; [8]): < 100 nM
- IC50 (S. aureus DNA gyrase; [9]): < 100 nM
- IC50 (S. aureus DNA gyrase; [10]): < 100 nM
- MIC range [3]: 0.004 to 0.12 µg/mL
- MIC50 [3]: 0.06 µg/mL
- MIC90 [3]: 0.12 µg/mL
- MIC fold lower than that of ciprofloxacin (S. aureus ATCC 29213; S. aureus ATCC 29213): approximately 10 fold
- MIC (S. aureus ATCC 29213; [11]): 0.03 µg/mL
- MIC (S. aureus ATCC 29213; ATCC29213, S. aureus ATCC29213, ref strain, S4 File): ≤ 0.06 µg/mL
- IC50 (Human Topoisomerase II; [12]): 6000 nM
- IC50 (Human Topoisomerase II; [13]): 6000 nM
- IC50 (Human Topoisomerase II; [14]): 7000 nM
- MIC [4]: 0.06 µg/mL
- MIC [5]: ≤ 0.06 µg/mL
- MIC (N. gonorrhoeae WHO K): 0.12 µg/mL
- MIC (N. gonorrhoeae WHO N): 0.03 µg/mL
- MIC (N. gonorrhoeae WHO L): 0.06 µg/mL
- MIC (E. coli TolC- mutant): ≤ 0.016 µg/mL
- IC50 (E. coli Topoisomerase IV; [15]): 130 nM
- IC50 (E. coli Topoisomerase IV; [16]): 100 nM
- IC50 (E. coli Topoisomerase IV; [17]): 160 nM
- IC50 [6, 18]: < 100 nM
- IC50 [6, 19]: < 100 nM
- IC50 [6, 20]: < 100 nM
- MIC (E. coli ATCC 25922): 0.5 µg/mL
- MIC (S. pneumoniae ATCC 49619): ≤ 0.06 µg/mL
- MIC (E. coli 4SI): 0.5 µg/mL
- MIC (H. influenzae ATCC 49766): 0.5 µg/mL
- MIC (E. faecalis ATCC 29212): 0.25 µg/mL
- MIC [7]: > 8 µg/mL
- MIC (P. aeruginosa ATCC 27853): 2 µg/mL
- MIC (S. aureus BAA-1720): 0.016 µg/mL
- IC50 (E. coli DNA gyrase; [21]): 50 nM
- IC50 (E. coli DNA gyrase; [22]): 40 nM
- IC50 (E. coli DNA gyrase; [23]): 50 nM

SMILES: Cl.O=c1oc2ccc(F)cc2c2[nH]c(CN[C@H]3CC[C@H](n4c(=O)ccc5ncc(F)cc54)CC3)cc12 [Compound 3, 8-fluoro-2-({[trans-4-(7-fluoro-2-oxo-1,5-naphthyridin-1(2H)-yl)cyclohexyl]amino}methyl)[1]benzopyrano[4,3-b]pyrrol-4(1H)-one hydrochloride]
- MIC50 [1]: 0.12 µg/mL
- MIC90 [1]: 0.12 µg/mL
- MIC [1]: 0.06 to 0.12 µg/mL
- MIC50 [2]: 0.12 µg/mL
- MIC90 [2]: 0.25 µg/mL
- MIC [2]: 0.06 to 2 µg/mL
- IC50 (S. aureus DNA gyrase; [8]): < 100 nM
- IC50 (S. aureus DNA gyrase; [9]): < 100 nM
- IC50 (S. aureus DNA gyrase; [10]): < 100 nM
- MIC range [3]: 0.004 to 0.03 µg/mL
- MIC50 [3]: 0.016 µg/mL
- MIC90 [3]: 0.03 µg/mL
- MIC (S. aureus ATCC 29213; [11]): 0.25 µg/mL
- IC50 (Human Topoisomerase II; [12]): 56000 nM
- IC50 (Human Topoisomerase II; [13]): 46000 nM
- IC50 (Human Topoisomerase II; [14]): 66000 nM
- MIC [4]: 0.016 µg/mL
- MIC [5]: ≤ 0.06 µg/mL
- MIC (N. gonorrhoeae WHO K): 0.016 µg/mL
- MIC (N. gonorrhoeae WHO N): 0.016 µg/mL
- MIC (N. gonorrhoeae WHO L): 0.016 µg/mL
- MIC (E. coli TolC- mutant): ≤ 0.016 µg/mL
- IC50 (E. coli Topoisomerase IV; [15]): < 100 nM
- IC50 (E. coli Topoisomerase IV; [16]): < 100 nM
- IC50 (E. coli Topoisomerase IV; [17]): < 100 nM
- IC50 (E. coli Topoisomerase IV; read-out: IC50 E. coli Topoisomerase IV decatenation (average), average of two replicate experiments): < 100 nM
- IC50 [6, 18]: < 100 nM
- IC50 [6, 19]: < 100 nM
- IC50 [6, 20]: < 100 nM
- MIC (E. coli ATCC 25922): 0.5 µg/mL
- MIC (S. pneumoniae ATCC 49619): 0.25 µg/mL
- MIC (E. coli 4SI): 0.12 µg/mL
- MIC (H. influenzae ATCC 49766): 0.12 µg/mL
- MIC (E. faecalis ATCC 29212): 0.12 µg/mL
- MIC [7]: 2 µg/mL
- MIC (P. aeruginosa ATCC 27853): 4 µg/mL
- MIC (S. aureus BAA-1720): 0.12 µg/mL
- IC50 (E. coli DNA gyrase; [21]): < 100 nM
- IC50 (E. coli DNA gyrase; [22]): < 100 nM
- IC50 (E. coli DNA gyrase; [23]): < 100 nM
- IC50 (E. coli DNA gyrase; read-out: IC50 E. coli Gyrase Supercoiling (average), average of two replicate experiments): < 100 nM
